In patent publication US20190259469A1, “Method for Evaluating Genotoxicity of Substance” (priority 2017, published 2019):
Where two headings read alike, the source gives them in different places.

What was measured:
[1] = system: Salmonella TA100 strain; assay: Mutation analysis by high-throughput sequencing of total DNA of TA100 strain exposed to mutagen; format: cell-based, S. typhimurium
Description: (§1) In this Example, the genotoxicity of a mutagen was analyzed by qualitatively and quantitatively analyzing mutation patterns in the genome of an organism exposed to the mutagen according to the analysis method of the present invention. The mutagen used was ethylnitrosourea (ENU, CAS No. 759-73-9). A Salmonella TA100 strain which is available for detection of a base pair substitution mutation and is routinely used in the Ames test was used as the organism to be exposed to the mutagen. The experiment was conducted in 3 independent operations to prepare samples (n=3).
(§2) The exposure to the mutagen was carried out in conformity to the preincubation method of the Ames test (K. Mortelmans et al., Mutat. Res. —Fundam. Mol. Mech. Mutagen., 2000, 455, 29-60). TA100 strain was inoculated to 2 mL of Nutrient Broth No. 2 (manufactured by Oxoid Ltd.) and shake-cultured at 37° C. at 180 rpm for 4 hours to obtain a preculture solution having an O.D. 660 value of 1.0 or more. ENU (54%; manufactured by Sigma-Aldrich Co. LLC) was diluted with dimethyl sulfoxide (DMSO; manufactured by Wako Pure Chemical Industries, Ltd.). One hundred μL of the ENU solution diluted into an appropriate concentration, 500 μL of a 0.1 M phosphate buffer, and 100 μL of the preculture solution were added into a test tube (ENU concentration: 67.5, 135, 270, 405, 540, 810, and 1080 μg/tube), and shake-cultured at 100 rpm for 20 minutes in a water bath of 37° C. For a control group, 100 μL of a solvent (DMSO) was added instead of the ENU solution. After the shake culture for 20 minutes, the test tube containing the culture solution was taken out of the water bath. Fifty μL of the culture solution was added to 2 mL of a nutrient broth solution dispensed in advance, and additionally cultured at 37° C. at 180 rpm for 14 hours. Then, 1 mL of the bacterial suspension was recovered and centrifuged at 7,500 rpm for 5 minutes. The supernatant was removed to recover bacterial cells.
From the bacterial cells obtained in the paragraph 1., total DNA was recovered using DNeasy Blood & Tissue Kit (manufactured by Qiagen N.V.) according to the recommended protocol.
The total DNA solutions recovered in the paragraph 2. from the control group and the ENU treatment groups were sequenced using a next-generation sequencer HiSeq 2500 (manufactured by Illumina, Inc.) according to the standard protocol. In this operation, DNA was fragmented into an average length of approximately […] by ultrasonic treatment. Adaptors were added to both ends of each fragment. The fragments were sequenced at a read length of 2×125 bp. 5.0-Gbp nucleotide sequence information per sample was obtained on average.
The editing of read sequences obtained by the sequencing and mutation analysis were conducted using Cutadapt software, PEAR software, Bowtie 2 software, Samtools software, and a program created using a programming language Python according to the conceptual diagram of analysis flow shown in Schematic diagram 2 in the same way as in Example 1. In this Example, PCR duplicates were removed using Picard tools (broadinstitute.github.io/picard/) after mapping using the Bowtie 2 software.
A reference sequence for the mapping using the Bowtie 2 software was constructed on the basis of the genomic sequence of the S. typhimurium TA100 strain. First, DNA was extracted from the TA100 strain and sequenced using a next-generation sequencer HiSeq 2500 (manufactured by Illumina, Inc.) according to the standard protocol. In this operation, the DNA was fragmented into an average length of approximately 300 bp by ultrasonic treatment. Adaptors were added to both ends of each fragment. The fragments were sequenced at a read length of 2×125 bp. The obtained read sequences were mapped to the genomic sequence of a S. typhimurium LT-2 strain, a pSLT plasmid sequence (GCA000006945.2), and a R46 plasmid sequence (NC_003292.1), followed by mutation detection using Samtools software. […]

[2] = system: Salmonella TA100 strain; format: cell-based, S. typhimurium; details: for The number of revertants: mean and standard deviation of 3 plates
Description: as §1, §2
For the Ames test, a bacterial suspension exposed to ENU under the same conditions as above was also prepared. Two mL of top agar (containing 1% NaCl, 1% agar, 0.05 mM histidine and 0.05 mM biotin) warmed to 45° C. was added thereto, and the bacterial cells were suspended by vortex. Then, the suspension was layered over a minimal glucose agar medium (Tesmedia (Registered trademark) AN; manufactured by Oriental Yeast Co., Ltd.). The obtained plate was cultured at 37° C. for 48 hours. Then, observed colonies were counted.
The data was indicated by a mean and standard deviation of measurement values from 3 plates.

[3] = ENU 540 μg/tube, control subtracted

## CCN(N=O)C(N)=O [ENU, ethylnitrosourea]
[1]; 3-base context, FIG. 7 and FIG. 8
  Increased mutation frequencies by sequence context analysis (96 mutation types), C>T mutation: larger increase in mutation frequency was found in a context with a pyrimidine base (C or T) located at 3′ side to the C
[1]; [3]
  Ratio of AT > CG mutation pattern to the whole of increased mutation frequencies (mutation spectrum): 2.36%
  Ratio of AT > GC mutation pattern to the whole of increased mutation frequencies (mutation spectrum): 12.4%
  Ratio of AT > TA mutation pattern to the whole of increased mutation frequencies (mutation spectrum): 11.5%
  Ratio of GC > AT mutation pattern to the whole of increased mutation frequencies (mutation spectrum): 73.7%
[1]; ENU 135, 270, 405 and 540 μg/tube, FIG. 4A
  Increased mutation frequencies of GC base pair mutation patterns: increase in the frequency of GC>AT mutation was found
[1]; ENU 135, 270, 405 and 540 μg/tube, FIG. 4B
  Increased mutation frequencies of AT base pair mutation patterns: increase in the frequencies of AT>TA and AT>GC mutations was mainly found
[2]; ENU 67.5 μg/plate
  The number of revertants: 258 ± 2.5
[2]; ENU 135 μg/plate
  The number of revertants: 659 ± 113.9
[2]; ENU 270 μg/plate
  The number of revertants: 3320 ± 734.4
[2]; ENU 405 μg/plate
  The number of revertants: 4994 ± 455.6
[2]; ENU 540 μg/plate
  The number of revertants: 5051 ± 173.0
[2]; ENU 810 μg/plate, growth inhibition on plate
  The number of revertants: 3102 ± 883.0
[2]; ENU 1080 μg/plate, growth inhibition on plate
  The number of revertants: 503 ± 190.9
[2]; ENU 67.5 to 1080 μg/plate against DMSO
  Change in the number of revertants by exposure: Increase in the number of revertants was found
